Test results reported in patent US9663478B2, “Benzotriazine oxides as drugs targeting Mycobacterium tuberculosis” (priority 2011, dated 2017).
Values after ≈ are worked out from the molar mass of the structure shown.

Key:
[1] = test system: H37Rv; assay: MIC H37Rv (Table E1, Additional BTO Activity Data); assay type: cell-based; settings: Mycobacterium tuberculosis
[2] = test system: INH-r; assay: MIC INH-r (Table E1); assay type: cell-based
[3] = test system: RMP-R; assay: MIC RMP-R (Table E1); assay type: cell-based
[4] = test system: OFX-R; assay: MIC OFX-R (Table E1); assay type: cell-based
[5] = MP MTT % viable (Table E1); settings: MP (so in the source)
[6] = test system: Mtb H37Rv; assay: TB MIC - SRI, resazurin-based microplate assay; assay type: cell-based, Mycobacterium tuberculosis; settings: Mycobacterium tuberculosis, H37RV, read-out: TB MIC - SRI
[7] = test system: Mtb H37Rv; assay: TB MIC - ITR (UIC), Institute for Tuberculosis Research; assay type: cell-based, Mycobacterium tuberculosis; settings: for TB MIC - UIC: Tables P1, P2; for MIC: Mycobacterium tuberculosis, H37RV, Tables 1-4, read-out: TB MIC - ITR
[8] = test system: NRP Mtb H37Rv cells; assay: Low-oxygen recovery assay (LORA) MIC; assay type: cell-based, Mycobacterium tuberculosis; settings: for LORA MIC: Tables P1, P2, non-replicating M. tuberculosis; for MIC: Mycobacterium tuberculosis, H37RV, NRP Mtb, Tables 1-4 and text, read-out: LORA MIC - ITR
[9] = in vitro; settings: African green monkey, VERO Tox (CC50)
[10] = test system: Vero cells; assay: Cytotoxicity against Vero cells (Cell Titer-Glo); settings: 72 h; Tables 1-4 and text

SMILES | MIC [1] [µg/mL] | MIC ([6]; Tables P1-P3) [µg/mL] | TB MIC - UIC [7] [µg/mL] | LORA MIC [8] [µg/mL] | CC50 at 72 h [9] [µg/mL] | further results
[O-][n+]1nc(N2CC3CCCC3C2)[n+]([O-])c2cc3c(cc21)CCC3 (centres unmarked) [Cmpd 10] | 0.391 (≈ 1.25 µM) | – | – | – | – | MIC [2]: 0.391 µg/mL (≈ 1.25 µM); MIC [3]: 0.098 µg/mL (≈ 0.314 µM); MIC [4]: 0.195 µg/mL (≈ 0.624 µM); viability at 0.01 ug/ml [5]: 103%; viability at 0.1 ug/ml [5]: 94%; viability at 1 ug/ml [5]: 107%
[O-][n+]1nc(N[C@@H]2C[C@H]3CC[C@@H]2C3)[n+]([O-])c2ccccc21 (racemic) [SRI-012264] | – | 0.625 (≈ 2.3 µM) | 0.6 | 0.42 | 3.4 (≈ 12.5 µM) | –
CC(=O)Nc1cc(/C=C/c2ccc([N+](=O)[O-])o2)ns1 [Cmpd 2] | – | – | – | – | > 50 | MIC ([6]; Tables 1-4 and text): 0.98 µg/mL (≈ 3.51 µM); MIC [7]: 3.8 µg/mL (≈ 13.6 µM); MIC [8]: 3.7 µg/mL (≈ 13.2 µM)
[O-][n+]1nc(N2CCC(c3ccc(F)cc3)C2)[n+]([O-])c2cc3c(cc21)CCC3 (centres unmarked) [Cmpd 17] | 0.098 (≈ 0.267 µM) | – | – | – | – | MIC [2]: 0.049 µg/mL (≈ 0.134 µM); MIC [3]: 0.027 µg/mL (≈ 0.0737 µM); MIC [4]: 0.049 µg/mL (≈ 0.134 µM); viability at 0.01 ug/ml [5]: 104%; viability at 0.1 ug/ml [5]: 82%; viability at 1 ug/ml [5]: 69%
CCC(C)Nc1n[n+]([O-])c2ccccc2[n+]1[O-] (centres unmarked) [SRI-012262] | – | 2.5 (≈ 10.7 µM) | 2 | 1.28 | 21.6 (≈ 92.2 µM) | –
CC1(C)CCc2cc3c(cc21)[n+]([O-])nc(N1CCCC1)[n+]3[O-] [Cmpd 9] | 0.5 (≈ 1.66 µM) | – | – | – | – | –
CCC(CC)Nc1n[n+]([O-])c2ccccc2[n+]1[O-] [SRI-012271] | – | 5 (≈ 20.1 µM) | 3.63 | 1.94 | 36.5 (≈ 147 µM) | –
C[C@@H]1[C@H]2C[C@@H](C[C@H]1Nc1n[n+]([O-])c3ccccc3[n+]1[O-])C2(C)C (racemic) [SRI-012273] | – | 1.25 (≈ 3.98 µM) | 0.48 | 0.48 | 4.6 (≈ 14.6 µM) | –
CC(C)(Nc1n[n+]([O-])c2cc3c(cc2[n+]1[O-])CCC3)c1ccc(F)cc1 [Cmpd 5] | 4.4 (≈ 12.4 µM) | – | – | – | – | –
CC(C)(C)C1CCC(Nc2n[n+]([O-])c3ccccc3[n+]2[O-])CC1 (centres unmarked) [SRI-012257] | – | 0.625 (≈ 1.98 µM) | 0.22 | < 0.125 | 2.3 (≈ 7.27 µM) | –
Nc1n[n+]([O-])c2ccccc2[n+]1[O-] [TPZ, tirapazamine, reference compound] | – | – | – | – | – | MIC ([6]; Tables 1-4 and text): 5 µg/mL (≈ 28.1 µM); MIC [7]: 3.7 µg/mL (≈ 20.8 µM); MIC [8]: 7.3 µg/mL (≈ 41 µM); Vero Tox CC50 [10]: 8.0 µg/mL
[O-][n+]1nc(NC2[C@H]3C[C@@H]4C[C@@H](C[C@H]2C4)C3)[n+]([O-])c2ccccc21 (some centres unmarked) [SRI-012269] | – | 2.5 (≈ 8 µM) | 1.91 | 2.33 | 7.3 (≈ 23.4 µM) | –
CN(c1n[n+]([O-])c2cc3c(cc2[n+]1[O-])CCC3)C1(c2ccc(F)cc2)CC1 [Cmpd 4] | 4.6 (≈ 12.6 µM) | – | – | – | – | –
CC(C)CC(C)Nc1n[n+]([O-])c2ccccc2[n+]1[O-] (centres unmarked) [SRI-012263] | – | 2.5 (≈ 9.53 µM) | 1.98 | 0.83 | 11.7 (≈ 44.6 µM) | –
CC(C)CCC(C)Nc1n[n+]([O-])c2ccccc2[n+]1[O-] (centres unmarked) [SRI-012259] | – | 1.25 (≈ 4.52 µM) | 0.52 | 0.38 | 4.1 (≈ 14.8 µM) | –
[O-][n+]1nc(NC2CCC2)[n+]([O-])c2ccccc21 [SRI-012260] | – | 1.25 (≈ 5.38 µM) | 0.94 | 0.84 | 8.9 (≈ 38.3 µM) | –
COc1cccc(C2CCN(c3n[n+]([O-])c4cc5c(cc4[n+]3[O-])CCC5(C)C)C2)c1OC (centres unmarked) [Cmpd 8] | 0.7 (≈ 1.6 µM) | – | – | – | – | –
CN(Cc1ccccn1)c1n[n+]([O-])c2cc3c(cc2[n+]1[O-])CCC3 [Cmpd 2] | 1 (≈ 3.09 µM) | – | – | – | – | –
CN(Cc1ccc(C(F)(F)F)cc1)c1n[n+]([O-])c2cc3c(cc2[n+]1[O-])CCC3 [Cmpd 11] | 0.098 (≈ 0.251 µM) | – | – | – | – | MIC [2]: 0.195 µg/mL (≈ 0.5 µM); MIC [3]: 0.024 µg/mL (≈ 0.0615 µM); MIC [4]: 0.024 µg/mL (≈ 0.0615 µM); viability at 0.01 ug/ml [5]: 113%; viability at 0.1 ug/ml [5]: 108%; viability at 1 ug/ml [5]: 104%
NNC(=O)c1ccncc1 [INH, Isoniazid, reference compound] | – | – | – | – | – | MIC ([6]; Tables 1-4 and text): 0.06 µg/mL (≈ 0.438 µM); MIC [7]: 0.091 µg/mL (≈ 0.664 µM); MIC [8]: > 20 µg/mL; Vero Tox CC50 [10]: >50 µg/mL
